Measurements taken from patent US20030004172A1, “Fused pyrimidinone matrix metalloproteinase inhibitors” (priority 2001, published 2003).

Molecular target: MMP-13CD (catalytic domain of collagenase-3) (Homo sapiens, UniProt P45452)
Test: Thiopeptolide substrate hydrolysis inhibition assay, MMP-13CD
Format: biochemical
Conditions: Table I; thiopeptolide substrate, HEPES pH 7.0, 22° C.; read-out: MMP-13CD IC50
Excerpt: Thiopeptolide substrates show virtually no decomposition or hydrolysis at or below neutral pH in the absence of a matrix metalloproteinase enzyme.

| SMILES | IC50 [nM] |
| --- | --- |
| COc1ccc(CNC(=O)c2cc3c(=O)n(Cc4ccc(C#N)cc4)c(=O)n(C)c3s2)cc1 [Example 64, 3-(4-Cyano-benzyl)-1-methyl-2,4-dioxo-1,2,3,4-tetrahydro-thieno[2,3-d]pyrimidine-6-carboxylic acid 4-methoxy-benzylamide] | 62 |
| CCOC(=O)c1ccc(Cn2c(=O)c3cc(C(=O)NCc4cccc(OC)c4)sc3n(C)c2=O)o1 [Example 65a, 5-[6-(3-Methoxy-benzylcarbamoyl)-1-methyl-2,4-dioxo-1,4-dihydro-2H-thieno[2,3-d]pyrimidin-3-ylmethyl]-furan-2-carboxylic acid ethyl ester] | 1050 |
| COc1cccc(CNC(=O)c2cc3c(=O)n(Cc4ccc(C(=O)OCCN(C)C)cc4)c(=O)n(C)c3s2)c1 [Example 68, 4-[6-(3-Methoxy-benzylcarbamoyl)-1-methyl-2,4-dioxo-1,4-dihydro-2H-thieno[2,3-d]pyrimidin-3-ylmethyl]-benzoic acid 2-dimethylamino-ethyl ester] | 63.5 |
| COc1ccc(CNC(=O)c2cc3c(=O)n(CC4CCCCC4)c(=O)n(C)c3s2)cc1 [Example 70, 3-cylcohexylmethyl-1-methyl-2,4-dioxo-1,2,3,4-tetrahydro-thieno[2,3-d]pyrimidine-6-carboxylic acid-4methoxy-benzylamide] | 119 |
| O=C(OCc1ccoc1)c1cc2c(=O)n(Cc3ccccc3)c(=O)[nH]c2s1 [Example 71, 3-Benzyl-2,4-dioxo-1,2,3,4-tetrahydro-thieno[2,3-d]pyrimidine-6-carboxylic acid furan-3-ylmethyl ester] | 13000 |
| Cn1c(=O)n(Cc2ccccc2)c(=O)c2cc(C(=O)OCc3c(F)c(F)c(F)c(F)c3F)sc21 [Example 72, 3-Benzyl-1-methyl-2,4-dioxo-1,2,3,4-tetrahydro-thieno[2,3-d]pyrimidine-6-carboxylic acid pentafluorophenylmethyl ester] | > 100000 |
| O=C(OCc1ccccc1)c1cc2c(=O)n(Cc3ccccc3)c(=O)n(CC3CC3)c2s1 [Example 74, 3-Benzyl-1-cyclopropylmethyl-2,4-dioxo-1,2,3,4-tetrahydro-thieno[2,3-d]pyrimidine-6-carboxylic acid benzyl ester] | 71500 |
| Cn1c(=O)n(Cc2ccccc2)c(=O)c2cc(C(=O)NCc3ccncc3)sc21 [Example 75, 3-Benzyl-1-methyl-2,4-dioxo-1,2,3,4-tetrahydro-thieno[2,3-d]pyrimidine-6-carboxylic acid (pyridin-4-ylmethyl)-amide] | 345 |
| Cn1c(=O)n(Cc2ccc(C(=O)OC(C)(C)C)cc2)c(=O)c2cc(C(=O)NCc3cccc(OC(F)F)c3)sc21 [Example 78, 4-[6-(3-Difluoromethoxy-benzylcarbamoyl)-1-methyl-2,4-dioxo-1,4-dihydro-2H-thieno[2,3-d]pyrimidin-3-ylmethyl]-benzoic acid tert-butyl ester] | 900 |
| Cn1c(=O)n(Cc2ccc(C(=O)OC(C)(C)C)cc2)c(=O)c2cc(C(=O)NCc3ccc(S(C)(=O)=O)cc3)sc21 [Example 80, 4-[6-(4-Methanesulfonyl-benzylcarbamoyl)-1-methyl-2,4-dioxo-1,4-dihydro-2H-thieno[2,3-d]pyrimidin-3-ylmethyl]-benzoic acid tert-butyl ester] | 25000 |
| Cn1c(=O)n(Cc2ccc(C(=O)O)cc2)c(=O)c2cc(C(=O)NCc3ccc(S(C)(=O)=O)cc3)sc21 [Example 81, 4-[6-(4-Methanesulfonyl-benzylcarbamoyl)-1-methyl-2,4-dioxo-1,4-dihydro-2H-thieno[2,3-d]pyrimidin-3-ylmethyl]-benzoic acid] | 3900 |
| Cn1c(=O)n(Cc2ccc(C(=O)O)cc2)c(=O)c2cc(C(=O)NCCc3ccncc3)sc21 [Example 82, 4-[1-Methyl-2,4-dioxo-6-(2-pyridin-4-yl-ethylcarbamoyl)-1,4-dihydro-2H-thieno[2,3-d]pyrimidin-3-ylmethyl]-benzoic acid] | 3700 |
| COc1cccc(CNC(=O)c2cc3c(=O)n(Cc4ccc(OC(F)(F)F)cc4)c(=O)n(C)c3s2)c1 [Example 83, 1-Methyl-2,4-dioxo-3-(4-trifluoromethoxy-benzyl)-1,2,3,4-tetrahydro-thieno[2,3-d]pyrimidine-6-carboxylic acid 3-methoxy-benzylamide] | 140 |
| COc1cccc(CNC(=O)c2cc3c(=O)n(Cc4cnc(C)s4)c(=O)n(C)c3s2)c1 [Example 86, 1-Methyl-3-(2-methyl-thiazol-5-ylmethyl)-2,4-dioxo-1,2,3,4-tetrahydro-thieno[2,3-d]pyrimidine-6-carboxylic acid 3-methoxy-benzylamide] | 1400 |
| COc1nc2sc(C(=O)OCc3ccccc3)cc2c(=O)n1Cc1ccccc1 [Example 88, 3-Benzyl-2-methoxy-4-oxo-3,4-dihydro-thieno[2,3-d]pyrimidine-6-carboxylic acid benzyl ester] | 3150 |
| COc1cccc(CNC(=O)c2cc3c(=O)n(Cc4ccc(C(=O)OCOC(=O)C(C)(C)C)cc4)c(=O)n(C)c3s2)c1 [Example 89, 4-[6-(3-Methoxy-benzylcarbamoyl)-1-methyl-2,4-dioxo-1,4-dihydro-2H-thieno[2,3-d]pyrimidin-3-ylmethyl]-benzoic acid 2,2-dimethyl-propionyloxymethyl ester] | 113 |
| COc1cccc(CNC(=O)c2cc3c(=O)n(Cc4ccc(C5(C(=O)OC(C)(C)C)CC5)cc4)c(=O)n(C)c3s2)c1 [Example 93, 1-{4-[6-(3-Methoxy-benzylcarbamoyl)-1-methyl-2,4-dioxo-1,4-dihydro-2H-thieno[2,3-d]pyrimidin-3-ylmethyl]-phenyl}-cyclopropanecarboxylic acid tert-butyl ester] | 111 |

Compounds with a lower IC50, results first:

| IC50 [nM] | SMILES |
| --- | --- |
| 57 | COc1cccc(CNC(=O)c2cc3c(=O)n(CC4CCCCC4)c(=O)n(C)c3s2)c1 [Example 69, 3-Cylcohexylmethyl-1-methyl-2,4-dioxo-1,2,3,4-tetrahydro-thieno[2,3-d]pyrimidine-6-carboxylic acid-3methoxy-benzylamide] |
| 53.5 | COc1ccc(CNC(=O)c2cc3c(=O)n(Cc4ccc(S(=O)(=O)N(C)C)cc4)c(=O)n(C)c3s2)cc1 [Example 62, 3-(4-Dimethylsulfamoyl-benzyl)-1-methyl-2,4-dioxo-1,2,3,4-tetrahydro-thieno[2,3-d]pyrimidine-6-carboxylic acid 4-methoxy-benzylamide] |
| 53.5 | COc1cccc(CNC(=O)c2cc3c(=O)n(Cc4ccc(NC(C)=O)cc4)c(=O)n(C)c3s2)c1 [Example 65, 3-(4-Acetylamino-benzyl)-1-methyl-2,4-dioxo-1,2,3,4-tetrahydro-thieno[2,3-d]pyrimidine-6-carboxylic acid 3-methoxy-benzylamide] |
| 49.6 | COC(=O)C1CCC(Cn2c(=O)c3cc(C(=O)NCc4cccc(OC)c4)sc3n(C)c2=O)CC1 (stereo not drawn) [Example 91, 4-[6-(3-Methoxy-benzylcarbamoyl)-1-methyl-2,4-dioxo-1,4-dihydro-2H-thieno[2,3-d]pyrimidin-3-ylmethyl]-cyclohexanecarboxylic acid methyl ester] |
| 47.5 | COc1cccc(CNC(=O)c2cc3c(=O)n(Cc4ccc5c(c4)OCC5)c(=O)n(C)c3s2)c1 [Example 85, 3-(2,3-Dihydro-benzofuran-6-ylmethyl)-1-methyl-2,4-dioxo-1,2,3,4-tetrahydro-thieno[2,3-d]pyrimidine-6-carboxylic acid 3-methoxy-benzylamide] |
| 27.5 | COc1cccc(COC(=O)c2cc3c(=O)n(Cc4ccc(C#N)cc4)c(=O)[nH]c3s2)c1 [Example 66, 3-(4-Cyano-benzyl)-2,4-dioxo-1,2,3,4-tetrahydro-thieno[2,3-d]pyrimidine-6-carboxylic acid 3-methoxy-benzyl ester] |
| 20.5 | COC(=O)c1ccc(Cn2c(=O)c3cc(C(=O)NCc4cccc(OC)c4)sc3n(C)c2=O)cc1 [Example 84, 4-[6-(3-Methoxy-benzylcarbamoyl)-1-methyl-2,4-dioxo-1,4-dihydro-2H-thieno[2,3-d]pyrimidin-3-ylmethyl]-benzoic acid methyl ester] |
| 18.5 | Cn1c(=O)n(Cc2ccc(-c3nnn[nH]3)cc2)c(=O)c2cc(C(=O)NCc3ccc(F)cc3)sc21 [Example 87, 1-Methyl-2,4-dioxo-3-[4-(1H-tetrazol-5-yl)-benzyl]-1,2,3,4-tetrahydro-thieno[2,3-d]pyrimidine-6-carboxylic acid 4-fluoro-benzylamide] |
| 10.9 | COC(=O)C1(c2ccc(Cn3c(=O)c4cc(C(=O)NCc5cccc(OC)c5)sc4n(C)c3=O)cc2)CC1 [Example 92, 1-{4-[6-(3-Methoxy-benzylcarbamoyl)-1-methyl-2,4-dioxo-1,4-dihydro-2H-thieno[2,3-d]pyrimidin-3-ylmethyl]-phenyl}-cyclopropanecarboxylic acid methyl ester] |
| 6.55 | Cn1c(=O)n(Cc2ccc(C(=O)O)cc2)c(=O)c2cc(C(=O)NCc3cccc(OC(F)F)c3)sc21 [Example 77, 4-[6-(3-Difluoromethoxy-benzylcarbamoyl)-1-methyl-2,4-dioxo-1,4-dihydro-2H-thieno[2,3-d]pyrimidin-3-ylmethyl]-benzoic acid] |
| 5.43 | COc1cccc(CNC(=O)c2cc3c(=O)n(CC4CCC(C(=O)O)CC4)c(=O)n(C)c3s2)c1 (stereo not drawn) [Example 90, 4-[6-(3-Methoxy-benzylcarbamoyl)-1-methyl-2,4-dioxo-1,4-dihydro-2H-thieno[2,3-d]pyrimidin-3-ylmethyl]-cyclohexanecarboxylic acid] |
| 2.05 | COc1cccc(CNC(=O)c2cc3c(=O)n(Cc4ccc(C(=O)O)cc4)c(=O)n(C)c3s2)c1 [Example 79, 4-[6-(3-Methoxy-benzylcarbamoyl)-1-methyl-2,4-dioxo-1,4-dihydro-2H-thieno[2,3-d]pyrimidin-3-ylmethyl]-benzoic acid] |
| 1.68 | COc1cccc(COC(=O)c2cc3c(=O)n(Cc4ccc(-c5nn[nH]n5)cc4)c(=O)[nH]c3s2)c1 [Example 67, 2,4-Dioxo-3-[4-(2H-tetrazol-4-yl)-benzyl]-1,2,3,4-tetrahydro-thieno[2,3-d]pyrimidine-6-carboxylic acid 3-methoxy-benzyl ester] |
